Experimental data as given in publication PMC11274511, “Synthesis of Substituted 1,2,4-Triazole-3-Thione Nucleosides Using E. coli Purine Nucleoside Phosphorylase” (Biomolecules, 2024).
Read-outs that look alike come from different tables or passages of the source.

How the values were obtained:
[1] = target: T1, E. coli purine nucleoside phosphorylase (PNP) (Escherichia coli, UniProt P0ABP8); experiment: Test reaction for 2-deoxyriboside synthesis (substrate test, HPLC); type: biochemical; settings: for Deoxyriboside Content, % 1 h / Deoxyriboside Content, % 24 h: 1 mM base, 2 mM 2′-deoxyuridine, 10 mM KH2PO4, pH 7.0, 5.6 units PNP, 1.7 units UP, 50 °C; for Substrate of E. coli PNP (product formation according to HPLC): test reaction with 2′-deoxyuridine, PNP and UP
T1 construct: made in house; host or cells: E. coli ER2566
T1 sequence (P0ABP8 2-239): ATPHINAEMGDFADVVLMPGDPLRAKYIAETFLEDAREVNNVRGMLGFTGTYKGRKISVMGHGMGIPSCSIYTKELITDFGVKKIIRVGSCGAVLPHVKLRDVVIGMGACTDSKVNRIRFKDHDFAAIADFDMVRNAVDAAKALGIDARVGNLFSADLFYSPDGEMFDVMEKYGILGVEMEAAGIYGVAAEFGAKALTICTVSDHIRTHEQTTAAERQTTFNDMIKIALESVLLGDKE
Experimental: Each reaction mixture (0.25 mL, pH 7.0) contained 1 mM of the tested heterocyclic base, 2 mM 2′-deoxyuridine, 10 mM KH2PO4, and Escherichia coli purine nucleoside phosphorylase (5.6 units) and uridine phosphorylase (1.7 units). An activity unit is the amount (in µmol) of natural product (hypoxanthine or uracil) formed per minute. The reaction mixtures were incubated at 50 °C. Substrate and product quantities were determined using HPLC.
The test reactions contained the tested heterocyclic base, 2′-deoxyuridine, and both enzymes (PNP and UP).

Vero E6 cells = experiment: Cytotoxicity, trypan blue exclusion method; settings: for Reduction of cytotoxicity compared to base 7: ribosylation / deoxyribosylation of base 7
Experimental: (§1) Cytotoxicity was determined quantitatively by the trypan blue exclusion method. […] Negative control wells contained cells with maintenance medium.
(§2) After 72 h of cell culture incubation in the presence of a compound at a known concentration, the culture medium was harvested, the cells were treated with Versene solution, and suspended in the previously removed support medium. The resulting cell suspension was combined with 1% trypan blue solution in a ratio of 1:1. The number of live and stained cells was determined using a Goryaev camera (Minimed, Bryansk, Russia).

HSV-1/L2(TK+) = experiment: microbe, parasite or virus in culture
Experimental: (§3) Herpes simplex virus type 1 (HSV-1) strain L2 was obtained from the State’s collection of viruses at FSBI «N. F. Gamaleya National Research Centre for Epidemiology and Microbiology, Russian Ministry of Health, Russia» («D. I. Ivanovsky Institute of Virology» subdivision).
(§4) Antiviral activity in vitro was measured by the method of the cytopathic effect (CPE) inhibition assay. In 96-well plastic plates with the 24 h generated cell monolayer, 2-fold serial dilutions of the compounds were prepared. Cells infected with MOI of 0.1 PFU/cell were incubated at 37 °C in 5% CO2 atmosphere. […] Antiviral activity was assessed by determining of IC50 and IC95.
(§5) Three controls were used: (1) Toxicity control. Uninfected cells were incubated in the presence of the drug in the same concentration range as in the experiment. (2) Virus control. […] (3) Cell control. Uninfected cell cultures were incubated in the maintenance medium, which contained no drug.

HSV-1/L2/R^ACV = experiment: microbe, parasite or virus in culture
Experimental: as §3, §4, §5

[2] = Cytotoxicity, trypan blue exclusion method; settings: African green monkey
Experimental: as §1, §2

AURORA-A = test system: AURORA-A; parameters: method as in earlier work; settings: cited from earlier work
FLT-3 = test system: FLT-3; parameters: method as in earlier work; settings: cited from earlier work
c-TAK1 = test system: c-TAK1; parameters: method as in earlier work; settings: cited from earlier work
[3] = Strain HSV-1/L2(TK+), Vero E6, MOI 0.1 PFU/cell, 48 h
[4] = Strain HSV-1/L2/R^ACV, Vero E6, MOI 0.1 PFU/cell, 48 h
[5] = Vero E6 cells, CC50, Vero E6 cells, 72 h, trypan blue
[6] = Human alphaherpesvirus 1, Vero C1008, 48 h
[7] = Human alphaherpesvirus 1, Vero C1008, 48 h, Strain HSV-1/L2(TK+), Vero E6, MOI 0.1 PFU/cell, 48 h
[8] = Vero E6 cells, 72 h, trypan blue

Compound	Deoxyriboside Content, % 1 h [1] [%]	Deoxyriboside Content, % 24 h [1] [%]	Substrate of E. coli PNP (product formation according to HPLC) [1]	SI (ratio of CC50 to IC50) (HSV-1/L2(TK+); Strain HSV-1/L2(TK+))	IC50 (HSV-1/L2(TK+); [3]) [µM]	SI (ratio of CC50 to IC50) (HSV-1/L2/R^ACV; Strain HSV-1/L2/R^ACV)	CC50 at 72 h [2, 5] [µM]	IC95 (HSV-1/L2(TK+); [6]) [µM]	IC50 (HSV-1/L2(TK+); [7]) [µM]	IC50 (HSV-1/L2/R^ACV; [6]) [µM]	IC95 (HSV-1/L2/R^ACV; [6]) [µM]	further results
1,2,4-Triazole-3-thione [Compound 3]	0	0	did not prove to be substrates	3	618 ± 3.7	3	–	–	–	–	–	CC50 (Vero E6 cells): 1885.7 ± 1.7 µM; IC95 (HSV-1/L2(TK+); [3]): >1236.0 µM; IC50 (HSV-1/L2/R^ACV; [4]): 618 ± 3.7 µM; IC95 (HSV-1/L2/R^ACV; [4]): >1236.0 µM
O=C(CSc1ncn([C@H]2C[C@H](O)[C@@H](CO)O2)n1)c1ccccc1 [Compound 9, 1-(2-Deoxy-β-D-ribofuranosyl)-3-phenacylthio-1,2,4-triazole]	–	–	–	2	–	2	920 ± 77.2	835 ± 51.8	418 ± 25.9	418 ± 25.9	835 ± 51.8	–
O=C(CSc1nc(-c2ccccc2)nn1[C@@H]1O[C@H](CO)[C@@H](O)[C@H]1O)c1ccccc1 [Compound 10, 5-Phenacylthio-3-phenyl-1-(β-D-ribofuranosyl)-1,2,4-triazole]	–	–	–	3	–	2	480 ± 6.2	305 ± 8.8	152 ± 4.4	305 ± 8.8	305 ± 8.8	–
CCCCSc1n[nH]c(-c2ccccc2)n1 [Compound 7, 3-Butylthio-5-phenyl-1,2,4-triazole]	62	41	product’s formation was observed	3	33.5 ± 0.4	1	91.1	> 67	33.5	67 ± 0.8	> 67	Increase of toxicity compared to base 4 (Vero E6 cells; CC50 91.07 vs. 5642.39 µM): 62 fold; CC50 (Vero E6 cells; [8]): 91.1 ± 0.7 µM; Activity against kinase AURORA-A (AURORA-A): active; Activity against kinase FLT-3 (FLT-3): active; Activity against kinase c-TAK1 (c-TAK1): active
NC(=O)c1ncn([C@@H]2O[C@H](CO)[C@@H](O)[C@H]2O)n1 [Ribavirin, reference compound]	–	–	–	–	–	–	–	> 2050	512 ± 20	1020 ± 39.9	> 2050	CC50 at 72 h [2]: > 2050 µM
O=C(CSc1nnc[nH]1)c1ccccc1 [Compound 5, 3-Phenacylthio-1,2,4-triazole]	94	25	product’s formation was observed	6	–	6	3346 ± 26.5	2280 ± 20.5	570.1 ± 5.1	570.1 ± 5.1	2280 ± 20.5	–
5-Phenyl-1,2,4-triazole-3-thione [Compound 4]	0	0	did not prove to be substrates	–	2821 ± 25.4	–	–	–	–	–	–	CC50 (Vero E6 cells): > 5640 µM; CC50 (Vero E6 cells; [8]): > 5640 µM; IC95 (HSV-1/L2(TK+); [3]): >5642.4 µM; IC50 (HSV-1/L2/R^ACV; [4]): 2821 ± 25.4 µM; IC95 (HSV-1/L2/R^ACV; [4]): >5642.4 µM
O=C(CSc1ncn([C@@H]2O[C@H](CO)[C@@H](O)[C@H]2O)n1)c1ccccc1 [Compound 8, 3-Phenacylthio-1-(β-D-ribofuranosyl)-1,2,4-triazole]	–	–	–	>8	–	>8	> 3030	1520 ± 45.8	379 ± 11.4	379 ± 11.4	3030 ± 91.5	–
CCCCSc1nc(-c2ccccc2)nn1[C@@H]1O[C@H](CO)[C@@H](O)[C@H]1O [Compound 12, 5-Butylthio-3-phenyl-1-(β-D-ribofuranosyl)-1,2,4-triazole]	–	–	–	4	–	4	657	375 ± 6.4	188 ± 3.2	188 ± 3.2	375 ± 6.4	CC50 (Vero E6 cells; [8]): 658 ± 13.9 µM; Reduction of cytotoxicity compared to base 7 (Vero E6 cells): more than 7 times; Decrease of antiviral activity compared to base 7 (HSV-1/L2(TK+); IC50 based): 6 fold
O=C(CSc1nc(-c2ccccc2)nn1[C@H]1C[C@H](O)[C@@H](CO)O1)c1ccccc1 [Compound 11, 1-(2-Deoxy-β-D-ribofuranosyl)-5-phenacylthio-3-phenyl-1,2,4-triazole]	–	–	–	2	–	2	244 ± 6.2	149 ± 5.1	149 ± 5.1	149 ± 5.1	149 ± 5.1	–
CCCCSc1nc(-c2ccccc2)nn1[C@H]1C[C@H](O)[C@@H](CO)O1 [Compound 13, 5-Butylthio-1-(2-deoxy-β-D-ribofuranosyl)-3-phenyl-1,2,4-triazole]	–	–	–	16	23.4 ± 0.6	8	364 ± 6	93.8 ± 2.4	23.4	46.9 ± 1.2	93.8 ± 2.4	Reduction of cytotoxicity compared to base 7 (Vero E6 cells): 4 times
